Test results taken from ChEMBL document CHEMBL5126517, “Structure-Activity Relationship in the Leucettine Family of Kinase Inhibitors” (J Med Chem, 2022).

Experiments:
Cannabinoid receptor 1 = Cannabinoid receptor 1 (Homo sapiens, UniProt P21554); test: Antagonist activity at CP-55940-activated CB1 receptor (unknown origin) at 10 uM by beta-arrestin assay relative to control; type: functional; parameters: scale not given: the % may be the effect or the level left
[1] = target: T1, Dual specificity tyrosine-phosphorylation-regulated kinase 3 (Homo sapiens, UniProt O43781); test: Inhibition of GST-fused human recombinant DYRK3 expressed in Escherichia coli using GRSRSRSRSRSR peptide as substrate incubated for 30 mins in presence of ATP by scintillation counting method
T1 sequence (O43781 whole entry): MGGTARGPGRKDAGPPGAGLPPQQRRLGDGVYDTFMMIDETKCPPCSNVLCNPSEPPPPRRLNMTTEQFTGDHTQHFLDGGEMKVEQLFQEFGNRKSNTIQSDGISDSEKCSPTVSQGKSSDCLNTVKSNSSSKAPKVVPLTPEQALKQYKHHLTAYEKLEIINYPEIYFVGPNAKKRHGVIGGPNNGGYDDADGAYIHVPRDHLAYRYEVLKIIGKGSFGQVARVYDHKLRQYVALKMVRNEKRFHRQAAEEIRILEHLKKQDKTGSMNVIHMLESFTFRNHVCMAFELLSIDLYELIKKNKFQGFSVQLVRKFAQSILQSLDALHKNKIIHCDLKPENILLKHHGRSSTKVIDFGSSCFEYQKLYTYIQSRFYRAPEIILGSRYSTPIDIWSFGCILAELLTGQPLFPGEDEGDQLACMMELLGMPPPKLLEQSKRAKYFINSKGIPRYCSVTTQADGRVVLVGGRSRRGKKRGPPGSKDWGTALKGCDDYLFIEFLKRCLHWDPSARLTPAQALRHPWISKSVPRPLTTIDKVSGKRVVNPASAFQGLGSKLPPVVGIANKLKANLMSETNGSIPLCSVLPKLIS

[2] = target: Glycogen synthase kinase-3 (Sus scrofa, UniProt B2LUN4+I6LNT8); test: Inhibition of porcine brain GSK-3alpha/beta using YRRAAVPPSPSLSRHSSPHQpSEDEEE as substrate incubated for 30 mins in presence of ATP by scintillation counting method; type: tissue-based
[3] = target: Dual specificity protein kinase CLK1 (Mus musculus, UniProt P22518); test: Inhibition of GST-fused mouse recombinant CLK1 expressed in Escherichia coli using GRSRSRSRSRSR peptide as substrate incubated for 30 mins in presence of ATP by scintillation counting method
U2OS = test: Induction of PI3K/mTor-dependent autophagy in human U2OS cells assessed as number of LC3 foci per cell at 10 uM measured after 4 hrs; type: cell-based; conditions: filed as activator
[4] = Neurotoxicity against mouse HT-22 cells assessed as cell survival at 20 uM treated for 24 hrs by MTS assay; type: toxicity, cell-based; conditions: ht-22, 24 h
[5] = target: Dual specificity protein kinase CLK4 (Mus musculus, UniProt O35493); test: Inhibition of GST-fused mouse recombinant CLK4 expressed in Escherichia coli using GRSRSRSRSRSR peptide as substrate incubated for 30 mins in presence of ATP by scintillation counting method
[6] = target: T2, Dual specificity tyrosine-phosphorylation-regulated kinase 2 (Homo sapiens, UniProt Q92630); test: Inhibition of GST-fused human recombinant DYRK2 expressed in Escherichia coli using GRSRSRSRSRSR peptide as substrate incubated for 30 mins in presence of ATP by scintillation counting method
T2 sequence (Q92630 whole entry): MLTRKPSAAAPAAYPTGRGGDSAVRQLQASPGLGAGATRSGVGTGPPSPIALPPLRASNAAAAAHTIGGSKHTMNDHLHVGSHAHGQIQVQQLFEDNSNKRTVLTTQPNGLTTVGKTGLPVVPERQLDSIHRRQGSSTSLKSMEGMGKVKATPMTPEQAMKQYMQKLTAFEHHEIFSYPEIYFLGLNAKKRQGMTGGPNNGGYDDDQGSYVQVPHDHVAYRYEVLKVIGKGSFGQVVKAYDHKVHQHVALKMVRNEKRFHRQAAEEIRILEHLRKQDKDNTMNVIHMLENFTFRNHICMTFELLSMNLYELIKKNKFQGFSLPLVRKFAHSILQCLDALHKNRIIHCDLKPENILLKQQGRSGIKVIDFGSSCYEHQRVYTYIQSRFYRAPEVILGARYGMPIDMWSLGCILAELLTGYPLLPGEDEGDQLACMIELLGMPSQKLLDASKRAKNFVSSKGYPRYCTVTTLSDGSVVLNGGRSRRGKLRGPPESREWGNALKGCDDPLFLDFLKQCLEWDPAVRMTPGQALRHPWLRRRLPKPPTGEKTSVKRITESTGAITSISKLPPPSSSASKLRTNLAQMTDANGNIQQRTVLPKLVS

[7] = target: Dual specificity protein kinase CLK3 (Mus musculus, UniProt O35492); test: Inhibition of GST-fused mouse recombinant CLK3 expressed in Escherichia coli using GRSRSRSRSRSR peptide as substrate incubated for 30 mins in presence of ATP by scintillation counting method
[8] = target: Serine/threonine-protein kinase pim-1 (Homo sapiens, UniProt P11309); test: Inhibition of human recombinant Pim1 expressed in Escherichia coli using histone H1 as substrate incubated for 30 mins in presence of ATP by scintillation counting method
HT-22 [9] = test: Neuroprotective activity against glutamate-induced cell death in mouse HT-22 cells treated for 24 hrs by MTS assay; type: functional, cell-based; conditions: HT-22, 24 h
HT-22 [10] = test: Modulation of CLK1 pre-mRNA splicing in mouse HT-22 cells assessed as inclusion of CLK1 exon 4 by measuring change in threshold cycle at 10 uM measured after 4 hrs by real time PCR analysis; type: cell-based; conditions: filed as modulator
Casein kinase 2 = Casein kinase 2 (Homo sapiens, UniProt P67870+P68400+P19784+Q8NEV1); test: Inhibition of human recombinant CK2 using RRRDDDSDDD peptide as substrate incubated for 30 mins in presence of ATP by scintillation counting method; type: protein assay
[11] = target: Dual specificity tyrosine-phosphorylation-regulated kinase 1A (Homo sapiens, UniProt Q13627); test: Inhibition of GST-fused human recombinant DYRK1A expressed in Escherichia coli using GRSRSRSRSRSR peptide as substrate incubated for 30 mins in presence of ATP by scintillation counting method
[12] = target: Dual specificity protein kinase CLK2 (Mus musculus, UniProt O35491); test: Inhibition of mouse recombinant GST-fused CLK2 expressed in Escherichia coli using GRSRSRSRSRSR peptide as substrate incubated for 30 mins in presence of ATP by scintillation counting method
[13] = Neurotoxicity against mouse HT-22 cells assessed as cell survival treated for 24 hrs by MTS assay; type: toxicity, cell-based
[14] = target: Dual specificity tyrosine-phosphorylation-regulated kinase 1B (Homo sapiens, UniProt Q9Y463)
Dual specificity tyrosine-phosphorylation-regulated kinase 1B, sequence (Q9Y463 whole entry): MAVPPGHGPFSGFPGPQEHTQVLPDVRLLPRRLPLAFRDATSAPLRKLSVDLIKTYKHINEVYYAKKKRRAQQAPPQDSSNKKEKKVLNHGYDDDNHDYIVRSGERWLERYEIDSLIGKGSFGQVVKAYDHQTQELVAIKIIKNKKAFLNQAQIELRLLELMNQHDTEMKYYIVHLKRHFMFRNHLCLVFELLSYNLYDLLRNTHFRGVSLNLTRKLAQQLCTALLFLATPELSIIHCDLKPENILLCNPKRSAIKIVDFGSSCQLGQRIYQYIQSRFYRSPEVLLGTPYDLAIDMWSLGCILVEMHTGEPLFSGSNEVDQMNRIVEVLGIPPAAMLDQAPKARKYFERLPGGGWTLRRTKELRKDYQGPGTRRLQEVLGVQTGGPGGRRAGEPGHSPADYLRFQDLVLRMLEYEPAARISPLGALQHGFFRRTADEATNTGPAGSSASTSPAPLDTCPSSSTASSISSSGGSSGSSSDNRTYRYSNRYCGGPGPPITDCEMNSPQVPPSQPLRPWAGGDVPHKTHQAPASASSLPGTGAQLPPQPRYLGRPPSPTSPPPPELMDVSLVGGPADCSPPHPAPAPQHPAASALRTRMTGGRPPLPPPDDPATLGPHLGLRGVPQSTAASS

Dual specificity protein kinase CLK4, sequence (O35493 whole entry, the tested form may be a part): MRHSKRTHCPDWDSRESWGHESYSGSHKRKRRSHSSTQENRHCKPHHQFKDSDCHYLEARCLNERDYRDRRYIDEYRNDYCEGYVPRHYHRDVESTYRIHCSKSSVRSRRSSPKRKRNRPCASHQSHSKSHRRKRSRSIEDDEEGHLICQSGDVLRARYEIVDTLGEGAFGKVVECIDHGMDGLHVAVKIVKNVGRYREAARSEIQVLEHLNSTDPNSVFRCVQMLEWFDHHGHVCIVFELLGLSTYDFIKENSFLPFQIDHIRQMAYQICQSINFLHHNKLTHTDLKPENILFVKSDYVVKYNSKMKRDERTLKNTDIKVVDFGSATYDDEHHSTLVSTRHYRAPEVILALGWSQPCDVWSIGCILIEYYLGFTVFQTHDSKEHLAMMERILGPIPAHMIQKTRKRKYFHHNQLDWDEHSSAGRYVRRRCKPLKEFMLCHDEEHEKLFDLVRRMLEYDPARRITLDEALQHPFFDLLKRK
Dual specificity protein kinase CLK1, sequence (P22518 whole entry, the tested form may be a part): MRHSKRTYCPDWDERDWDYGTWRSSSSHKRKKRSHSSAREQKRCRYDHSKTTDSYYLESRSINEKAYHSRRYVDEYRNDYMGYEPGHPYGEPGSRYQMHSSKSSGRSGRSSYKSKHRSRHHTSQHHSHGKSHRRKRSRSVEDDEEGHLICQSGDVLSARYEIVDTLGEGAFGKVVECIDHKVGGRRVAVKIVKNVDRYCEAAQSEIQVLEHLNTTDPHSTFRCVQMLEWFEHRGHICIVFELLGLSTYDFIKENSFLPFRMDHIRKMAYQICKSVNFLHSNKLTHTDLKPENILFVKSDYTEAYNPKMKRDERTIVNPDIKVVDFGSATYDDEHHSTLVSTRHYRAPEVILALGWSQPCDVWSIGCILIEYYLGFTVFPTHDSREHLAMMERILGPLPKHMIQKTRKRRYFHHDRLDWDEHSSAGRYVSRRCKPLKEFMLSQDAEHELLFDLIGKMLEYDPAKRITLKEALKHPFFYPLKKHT
Dual specificity protein kinase CLK3, sequence (O35492 whole entry, the tested form may be a part): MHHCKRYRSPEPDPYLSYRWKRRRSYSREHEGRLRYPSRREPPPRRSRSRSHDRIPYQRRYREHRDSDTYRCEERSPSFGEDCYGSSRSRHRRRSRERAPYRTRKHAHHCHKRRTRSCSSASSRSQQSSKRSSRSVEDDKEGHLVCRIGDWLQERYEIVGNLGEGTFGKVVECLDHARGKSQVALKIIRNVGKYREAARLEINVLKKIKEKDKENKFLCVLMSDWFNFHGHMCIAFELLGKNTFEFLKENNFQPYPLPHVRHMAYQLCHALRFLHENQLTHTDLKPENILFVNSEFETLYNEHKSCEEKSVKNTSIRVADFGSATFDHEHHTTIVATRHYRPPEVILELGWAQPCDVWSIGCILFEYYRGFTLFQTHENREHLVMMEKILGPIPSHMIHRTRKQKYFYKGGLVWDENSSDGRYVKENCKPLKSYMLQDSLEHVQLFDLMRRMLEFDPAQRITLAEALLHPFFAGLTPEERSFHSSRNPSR
Cannabinoid receptor 1, sequence (P21554 whole entry, the tested form may be a part): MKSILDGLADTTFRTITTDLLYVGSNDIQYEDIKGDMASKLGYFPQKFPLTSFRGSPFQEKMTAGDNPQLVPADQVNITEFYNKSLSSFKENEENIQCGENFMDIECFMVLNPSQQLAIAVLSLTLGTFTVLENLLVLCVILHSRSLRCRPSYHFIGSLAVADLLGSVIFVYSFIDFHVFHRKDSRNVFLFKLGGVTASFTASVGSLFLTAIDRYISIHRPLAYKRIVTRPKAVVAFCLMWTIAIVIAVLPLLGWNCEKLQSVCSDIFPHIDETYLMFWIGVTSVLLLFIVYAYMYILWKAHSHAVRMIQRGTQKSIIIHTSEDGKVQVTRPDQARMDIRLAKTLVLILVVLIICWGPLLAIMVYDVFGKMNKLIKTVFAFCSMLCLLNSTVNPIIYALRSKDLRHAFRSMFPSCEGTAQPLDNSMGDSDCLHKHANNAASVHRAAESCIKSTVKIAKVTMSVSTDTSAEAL
Serine/threonine-protein kinase pim-1, sequence (P11309 whole entry): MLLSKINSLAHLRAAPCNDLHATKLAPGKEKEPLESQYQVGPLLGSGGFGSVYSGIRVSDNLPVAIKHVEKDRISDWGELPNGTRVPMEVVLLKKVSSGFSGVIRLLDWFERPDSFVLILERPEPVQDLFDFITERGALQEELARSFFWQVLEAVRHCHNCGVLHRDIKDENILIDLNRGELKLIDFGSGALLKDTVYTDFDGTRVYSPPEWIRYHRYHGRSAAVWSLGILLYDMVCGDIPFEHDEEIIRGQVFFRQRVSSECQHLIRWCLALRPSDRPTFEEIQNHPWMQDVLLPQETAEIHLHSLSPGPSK
Dual specificity protein kinase CLK2, sequence (O35491 whole entry, the tested form may be a part): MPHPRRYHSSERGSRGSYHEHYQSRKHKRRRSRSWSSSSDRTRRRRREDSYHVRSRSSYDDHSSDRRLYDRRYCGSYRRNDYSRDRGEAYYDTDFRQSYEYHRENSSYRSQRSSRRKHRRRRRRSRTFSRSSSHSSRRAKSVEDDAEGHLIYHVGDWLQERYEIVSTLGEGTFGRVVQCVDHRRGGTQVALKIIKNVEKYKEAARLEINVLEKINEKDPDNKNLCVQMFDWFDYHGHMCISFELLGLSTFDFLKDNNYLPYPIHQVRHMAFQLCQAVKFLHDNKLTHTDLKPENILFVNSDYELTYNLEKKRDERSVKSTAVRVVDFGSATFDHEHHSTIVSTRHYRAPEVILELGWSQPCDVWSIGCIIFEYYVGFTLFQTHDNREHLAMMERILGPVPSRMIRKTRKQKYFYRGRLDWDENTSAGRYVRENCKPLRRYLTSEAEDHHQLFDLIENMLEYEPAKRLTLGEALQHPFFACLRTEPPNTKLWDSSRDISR

Compound	Activity (Cannabinoid receptor 1) [%]	IC50 [1] [nM]	IC50 [2] [nM]	IC50 [3] [nM]	Activity (U2OS)	Activity [4]	IC50 [5] [nM]	IC50 [6] [nM]	IC50 [7] [nM]	IC50 [8] [nM]	EC50 (HT-22 [9]) [nM]	deltaCT (HT-22 [10])	IC50 (Casein kinase 2) [nM]	IC50 [11] [nM]	IC50 [12] [nM]	EC50 at 24 h [13] [nM]	IC50 [14] [nM]	IC50 at 24 h [13] [nM]	Activity (Cannabinoid receptor 1; filed as antagonist) [%]
CN1CCN(c2ccc(NC3=N/C(=C\c4ccc5c(c4)OCO5)C(=O)N3)cc2)CC1	-14.5	25	120	23	24.9	Non-Toxic	16	50	800	1100	> 20000	7.48	1200	12	35				
O=C1NC(Nc2ccccc2)=NC1Cc1ccc2c(c1)OCO2 (centres undefined)		> 10000	> 10000	6270			5600	> 10000	> 10000					5100	> 10000	> 20000	> 10000		
COc1ccc(/C=C2\N=C(Nc3ccccc3)NC2=O)cc1		2100		340	5.8		280	220		≥ 10000	5300		2100	170	> 10000		550	> 20000	92.2
O=C1NC(Nc2ccccc2)=N/C1=C\c1ccc2c(c1)CCCO2		420	> 10000	120	4.8		140	120	≥ 10000	1200	3500		2200	120	1800		360	> 20000	94
O=C1NC(Nc2ccccn2)=N/C1=C\c1ccc2c(c1)OCO2	-18.3	310	1700	72	5.5		53	33	510	480	> 20000		130	44	220	> 20000	200		
CN1CCN(c2ccc(NC3=N/C(=C\C4=COc5ccccc5O4)C(=O)N3)cc2)CC1	-1.4	14	120	17	22		19	8	1100	510	12000		450	7	67		20	> 20000	
O=C1NC(N2CCN(c3ccc(F)cc3)CC2)=N/C1=C\c1ccc2c(c1)OCCO2	16	2100	8200	2100	8.1		2300	2200	> 10000	9300	14000			3100	10000		≥ 10000	> 20000	
COc1cccc(/C=C2\N=C(Nc3ccccc3)NC2=O)c1				≥ 10000	5.7		5000	> 10000		3100	7200			> 10000	> 10000	> 20000			71.9
CCCNC1=N/C(=C\c2ccc3c(c2)OCO3)C(=O)N1C	-15.8	1200	1400	110	6.8	Non-Toxic	120	95	2500	3200	> 20000	3.72	> 10000	460	560		550		
CN1C(=O)/C(=C/c2ccc3c(c2)OCO3)N=C1Nc1ccccc1	-5.5	870	750	140	7.9	Non-Toxic	110	80	1400	≥ 10000	14000	4.42	> 10000	93	500		3200		
